From article PMC12667295, “A surrogate barrier model for high-throughput blood-brain barrier permeability prediction: integrating LLC-PK1-MOCK/MDR1 Cells and lysosomal trapping correction” (Drug Delivery, 2025)
Read-outs that look alike come from different tables or passages of the source.

How the values were obtained:
[1] = Brain distribution in rats (Kp,brain, Kp,uu,brain); settings: rat
From the text: In vivo unbound brain distribution data (Kp,uu,Brain) for 16 drugs and total brain distribution data (Kp,Brain) for 16 drugs was acquired from literature. […] For each tested compound, fifteen rats were randomly divided into five groups of three rats each. […] The time of execution of the rats by CO2 inhalation after administration was optimized according to the in vivo elimination rate to achieve five concentrations of different time points. After the rats were euthanized, cardiac puncture was performed immediately to remove as much whole blood as possible (~7 ml) from the systemic circulation (Quantitatively aliquot 0.2 ml of whole blood for the determination of drug concentration in plasma). Afterwards, the brain tissue was collected immediately and rinsed repeatedly with ice-cold saline 3 times. Then, the surface saline was blotted dry with clean filter paper to remove as much residual drug in the blood vessels as possible. Plasma samples were prepared by centrifugation of the blood samples at 2,500 g for 10 minutes at 4 °C. All brain samples were homogenized by adding 4-fold volume water. All samples were stored at -40 °C before LC-MS/MS analysis. […] The brain tissue partition coefficient (Kp, brain) and brain-to-plasma unbound drug partition ratio (Kp,uu, brain) are calculated according to the following formulas, respectively: Kp,brain=AUC(0−∞,brain)/AUC(0−∞,plasma)Kp,uu,brain=Kp,brain×(fu,tissue/fu,plasma)
Free brain-to-plasma distribution coefficients (Kp,uu,brain) of 41 drugs. Brain distribution coefficients (Kp,uu,brain) were calculated for 41 drugs. […] Plasma and brain concentration-time profiles were generated, and AUC(0-t) values for both matrices were calculated using WinNolin 8.1. Kp,brain was derived as the ratio of brain-to-plasma AUC(0-t).
Kp,uu,brain values were computed by normalizing Kp,brain to unbound fractions (fu,plasma and fu,brain).

[2] = tested on: P-gp (human MDR1); experiment: in vitro; settings: pig, LLC-PK1, pH 7.4;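 further: 2 h incubation at 37 °C, receiver HBSS with 10 mM Hepes plus 1% BSA, LC-MS/MS of donor and receiver, recovery as receiver plus donor amount over initial donor amount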
[3] = tested on: P-gp (human MDR1); experiment: Bidirectional transport across LLC-PK1-MDR1 monolayer stably expressing human MDR1 (P-gp) (Transwell); settings: pig;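 further: 2 h incubation at 37 °C, receiver HBSS with 10 mM Hepes plus 1% BSA, LC-MS/MS of donor and receiver, recovery as receiver plus donor amount over initial donor amount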
[4] = Protein binding in rat brain homogenate (equilibrium dialysis)
Experimental: (§1) Stocks (10 mM) of test compounds were diluted to 5 μM with plasma or tissue homogenate and dialyzed at 37 °C for 6 hours in a shaking incubator. After incubation aliquots of both plasma or tissue homogenate and buffer from the device were taken and added to equal volumes of blank buffer and plasma or tissue homogenate respectively. Samples were then diluted in acetonitrile containing an internal standard prior to centrifugation and analysis of the supernatants by LC-MS/MS. The fu, plasma was calculated using Equation 1:(1) fu,plasma=Concbuffer chamber/Concsample chamber
Rat fraction unbound in brain (fu, brain) was determined as the ratio of concentration in buffer to that in brain.
(§2) Unbound fractions of test drugs in plasma (fu,plasma) and brain tissue (fu,brain). For compounds with existing rat plasma or brain protein-binding data from literature or internal studies, values were directly adopted.

[5] = footnote b, species not stated; ref https://go.drugbank.com; cited from earlier work
[6] = in vitro; settings: pig, pH 7.4
Experimental: (§3) Cells were passaged at 80−90% confluence (every 2−3 days) using trypsin-EDTA solution. […] The culture medium was replaced every other day, including 200 µL culture medium in the apical and 850 µL cell culture medium in the basolateral side. LLC-PK1 MOCK cells were used at passages of 3−30. LLC-PK1-MDR1 cells were cultured and passaged in the same manner as LLC-PK1 cells except at the density of 1 × 10^4 cells per well. LLC-PK1-MDR1 cells were used at passages of 3−25. For LLC-PK1 MOCK cells and LLC-PK1-MDR1 cells, the experiments were performed on the 4th and 7th day after seeding.
(§4) Samples were collected from the donor well at the start of the incubation (50 µL) as C0, and from the donor and receiver wells at the end of the incubation (50 µL). All samples were stored at - 40 °C for LC-MS/MS analysis.
(§5) Bidirectional transport experiments. […] The transwell experiments were conducted following above-mentioned procedure. […] When the recovery rate of the tested drug is below 80%, the possibility of intracellular accumulation should be considered. The polycarbonate (PC) membrane where cells are grown should be carefully peeled off from the cell culture medium and placed in 100 µL of HBSS buffer solution. […] The process was carried out on ice to prevent heat-induced degradation, applying a power in the range of 300 W for a total duration of 20 minutes. Thereafter, a quantitative analysis of the intracellular drug was conducted, and the drug recovery rate was recalculated based on this analysis.
(§6) The apparent permeability coefficient (Papp, cm/s) was calculated for each transport direction, A-B and B-A, using the following equation: Papp=dQ/dt×1/A×C0 where dQ/dt is the permeation rate (µmol/s), A is the surface area of the insert (0.33 cm^2, Corning), and C0 is the initial donor concentration (µM).
(§7) The efflux ratio (ER) is calculated as the ratio of Papp (B-A)/Papp (A-B). Recovery=TRcumrf+Cdf×VD/Cdi×VD×100% Where TRcumrf is the cumulative transported mass in the receiver chamber at the end of the incubation (nmol), Cdf is the concentration of the drug in the donor chamber at the end of the incubation (μM), VD is the volume of the donor chamber (mL), and Cdi is the initial concentration of the drug in the donor chamber (μM).
(§8) The method of the bidirectional transport experiment was the same as before.

[7] = Bidirectional transport across LLC-PK1 MOCK monolayer (Transwell); settings: pig; for recovery at 2 h, 2 µM: LLC-PK1 MOCK cell monolayer (Transwell);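 on all read-outs here: compound quantified by LC-MS/MS in donor and receiver wells, efflux ratio as B-A over A-B Papp, recovery relative to initial donor amount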
Experimental: as §3, §4, §5, §6, §7, §8

[8] = Protein binding in rat plasma (equilibrium dialysis)
Experimental: as §1, §2

[9] = cited from earlier work
[10] = LLC-PK1 MOCK/MDR1 monolayer model, results stated for both cell lines jointly; settings: pig, LLC-PK1 MOCK and LLC-PK1-MDR1 cell monolayers (Transwell)
Experimental: Monitoring of TEER value and LY permeability. After the LLC-PK1 MOCK/MDR1 cells attach to the Transwell insert, TEER (Transepithelial Electrical Resistance) values were continuously recorded using a cell resistance meter (Beijing JINGONGHONGTAI Technology Co., Ltd). These TEER values represent the mean from six individual inserts (n = 6) measured per group. The TEER measurement and transport experiment were conducted at 37 °C, using a heating plate to maintain the required temperature. The transmembrane resistance was calculated using the formula TEER = (Rtotal-Rblank) × Aarea, where Rblank represents the TEER of the blank chamber.
The permeability of the Lucifer Yellow CH Dipotassium Salt (LY, 100 μM) across the monolayers was measured in apical-to-basolateral direction to monitor the integrity of the cell monolayer.
Bidirectional transport experiments. […] The transwell experiments were conducted following above-mentioned procedure.

[11] = set-up: method as in not given; settings: stated without method; ref not given; cited from earlier work
[12] = LLC-PK1, pH 7.4, Papp A-B, LLC-PK1 MOCK, 2 µM, 2 h, mean ± s, n = 3, BLQ = below 2 nM
[13] = LLC-PK1, pH 7.4, Papp A-B, LLC-PK1-MDR1, 2 µM, 2 h, mean ± s, n = 3

Compound	Kp ([1]; SD, in vivo, iv, 1 mg/kg)	Kp uu ([1]; SD, in vivo, iv, 1 mg/kg)	recovery at 2 h, 2 µM [2] [%]	Papp A→B at 2 h, 2 µM ([3]; LLC-PK1, pH 7.4) [×10⁻⁶ cm/s]	Papp B→A at 2 h, 2 µM ([3]; LLC-PK1, pH 7.4) [×10⁻⁶ cm/s]	efflux ratio at 2 h, 2 µM ([3]; LLC-PK1, pH 7.4)	fraction unbound at 6 h, 5 µM [4]	Papp A→B at 2 h, 2 µM ([7]; LLC-PK1, pH 7.4) [×10⁻⁶ cm/s]	Papp B→A at 2 h, 2 µM ([7]; LLC-PK1, pH 7.4) [×10⁻⁶ cm/s]	efflux ratio at 2 h, 2 µM ([7]; LLC-PK1, pH 7.4)	Kp uu ([1]; SD, iv, 1 mg/kg)	Kp ([1]; SD, iv, 1 mg/kg, Kp, Brain)	fraction unbound at 6 h, 5 µM ([4]; rat, brain homogenate)	Papp A→B at 2 h, 2 µM [7, 12] [×10⁻⁶ cm/s]	Papp A→B at 2 h, 2 µM [3, 13] [×10⁻⁶ cm/s]	fraction unbound at 6 h, 5 µM ([8]; rat, plasma)	further results
NC(=O)C[S+]([O-])C(c1ccccc1)c1ccccc1 (stereo not drawn) [Modafinil]	0.71	0.547	107 ± 3.4	22.7 ± 0.45	23.9 ± 0.91	1.05	0.308	20.2 ± 0.98	15.6 ± 0.22	0.78	–	–	–	–	–	–	Protein binding in plasma [5]: 60^b %; recovery at 2 h, 2 µM [6]: 106 ± 2.03%
COc1ccc2c(c1)[C@]13CCCC[C@@H]1[C@H](C2)N(C)CC3 [Dextromethorphan]	11.5	0.825	93.6 ± 6.54	18.8 ± 0.12	21.9 ± 3.18	1.17	0.033	35.5 ± 2.09	25.9 ± 0.91	0.73	–	–	–	–	–	–	fraction unbound at 6 h, 5 µM [8]: 0.35
Cc1cc(=O)n(-c2ccccc2)n1C [Antipyrine]	–	–	113 ± 1.41	30.9 ± 1.46	28.9 ± 1.75	–	–	–	23.6 ± 1.43	–	0.72	0.755	0.809	31.4 ± 3.13	–	–	Protein binding in plasma ([8]; rat, 6 h, 5 µM): 15.0 ± 5.22%; recovery at 2 h, 2 µM ([7]; pH 7.4, Recovery A-B, LLC-PK1 MOCK, 2 µM, 2 h, n = 3): 116 ± 7.41%; recovery at 2 h, 2 µM ([7]; pH 7.4, Recovery B-A, LLC-PK1 MOCK, 2 µM, 2 h, n = 3): 95.2 ± 2.32%
CN(C)CCC=C1c2ccccc2CCc2ccccc21 [Amitriptyline]	–	–	–	–	12.7 ± 1.19	–	–	–	13.8 ± 1.58	–	–	–	–	9.98 ± 0.69	6.84 ± 0.72	–	Kp, Brain ([9]; ref Fridén [2009]): 20.15; Kp,uu,Brian ([9]; ref Fridén [2009]): 0.73; efflux ratio at 2 h, 2 µM ([3]; LLC-PK1, pH 7.4, ER, LLC-PK1-MDR1, Papp (B-A)/Papp (A-B)): 1.85; recovery at 2 µM ([10]; pH 7.4, Recovery after cell lysate extraction, intracellular drug included): > 80%; recovery at 2 µM ([10]; pH 7.4, Recovery, bidirectional transport, uncorrected): < 80%; recovery at 2 µM ([10]; pH 7.4, with bafilomycin A1 1 µM (inhibitor of lysosomal function), Recovery, with 1 µM Bafilomycin A1, bidirectional transport): 80 to 120%; pKa [11]: > 7; efflux ratio at 2 h, 2 µM ([7]; LLC-PK1, pH 7.4, ER, LLC-PK1 MOCK, Papp (B-A)/Papp (A-B)): 1.38; recovery at 2 h, 2 µM ([7]; pH 7.4, Recovery after correction of intracellular accumulation data, A-B, LLC-PK1 MOCK, cell lysate included, mean±SD, n=3): 80.01 ± 0.69%; recovery at 2 h, 2 µM ([7]; pH 7.4, Recovery after correction of intracellular accumulation data, B-A, LLC-PK1 MOCK, cell lysate included, mean±SD, n=3): 90 ± 9.68%
CC[C@]1(O)C[C@@H]2CN(CCc3c([nH]c4ccccc34)[C@@](C(=O)OC)(c3cc4c(cc3OC)N(C)[C@H]3[C@@](O)(C(=O)OC)[C@H](OC(C)=O)[C@]5(CC)C=CCN6CC[C@]43[C@@H]65)C2)C1 [Vinblastine]	–	–	103 ± 9.03	2.84 ± 0.27	20.4 ± 1.81	7.2	–	–	4.16 ± 0.32	0.96	< 0.088	0.528	< 0.01	4.33 ± 0.21	–	0.06	recovery at 2 h, 2 µM ([6]; LLC-PK1 MOCK cell monolayer (Transwell)): 86.5 ± 1.69%
COc1ccc2[nH]c([S+]([O-])Cc3ncc(C)c(OC)c3C)nc2c1 (stereo not drawn) [Omeprazole]	–	–	113 ± 1.46	–	41.5 ± 2.92	–	–	–	28.9 ± 1.39	–	–	–	0.321	34.2 ± 0.55	25.4 ± 0.66	0.045	Kp, Brain ([9]; ref Cheng et al. [2002]): 0.15; Kp uu [1]: 1.09
